Calls of active or inactive are those of the source. The rule behind the calls is not given here. Where a SMILES comes first, the peptide text is derived from it. [ ]: non-standard residue; d: D form. The star is where a group is joined. Phe(4-guanidino) = N=C(N)Nc1ccc(C[C@H](N)C(=O)O)cc1; Phe(4-F) = N[C@@H](Cc1ccc(F)cc1)C(=O)O; X1 = O=C(/C=C/c1ccccc1)*
Experiments:
[1] = target: T1, Proteinase-activated receptor 4 (Homo sapiens) (UniProt Q96RI0); assay: Antagonist activity against PAR4 in washed human platelets assessed as inhibition of alpha-thrombin-induced platelet aggregation at 30 to 300 nM pre-incubated for 20 mins before alpha-thrombin addition and measured over 100 to 500 secs by optical aggregometry; assay type: functional
T1 sequence (whole entry): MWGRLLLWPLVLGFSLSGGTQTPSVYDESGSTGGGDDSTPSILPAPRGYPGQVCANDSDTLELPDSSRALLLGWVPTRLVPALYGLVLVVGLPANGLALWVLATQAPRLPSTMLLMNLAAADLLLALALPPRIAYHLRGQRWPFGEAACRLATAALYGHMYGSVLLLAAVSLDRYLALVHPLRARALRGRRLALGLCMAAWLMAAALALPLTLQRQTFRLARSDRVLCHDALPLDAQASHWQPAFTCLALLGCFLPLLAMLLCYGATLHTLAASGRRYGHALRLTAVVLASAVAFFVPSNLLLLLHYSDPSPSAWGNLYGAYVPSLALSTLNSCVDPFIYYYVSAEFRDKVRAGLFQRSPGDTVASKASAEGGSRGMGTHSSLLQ

[2] = target: T2, Proteinase-activated receptor 1 (Homo sapiens) (UniProt P25116); assay: Antagonist activity against PAR1 in washed human platelets assessed as inhibition of alpha-thrombin-induced platelet aggregation at 30 to 300 nM pre-incubated for 20 mins before alpha-thrombin addition and measured over 100 to 500 secs by optical aggregometry; assay type: functional
T2 sequence (whole entry): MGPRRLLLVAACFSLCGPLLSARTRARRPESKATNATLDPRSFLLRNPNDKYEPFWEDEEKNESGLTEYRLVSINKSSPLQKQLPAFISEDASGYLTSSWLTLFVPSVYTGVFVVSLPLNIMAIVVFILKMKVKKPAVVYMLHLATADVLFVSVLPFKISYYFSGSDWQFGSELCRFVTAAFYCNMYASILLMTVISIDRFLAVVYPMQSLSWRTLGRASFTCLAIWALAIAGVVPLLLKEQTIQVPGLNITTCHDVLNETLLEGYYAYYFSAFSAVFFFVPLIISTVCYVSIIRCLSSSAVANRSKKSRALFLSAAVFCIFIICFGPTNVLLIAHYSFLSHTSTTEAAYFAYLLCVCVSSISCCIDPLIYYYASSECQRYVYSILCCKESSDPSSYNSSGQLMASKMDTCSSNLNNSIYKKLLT

| inhibition [1] | inhibition [2] | SMILES |
| --- | --- | --- |
| Active | – | COc1cc(OCc2cccc(-c3ccc(C#N)nc3)c2)c2cc(-c3cn4nc(OC)sc4n3)oc2c1 |
| – | Active | CC(C)C[C@H](NC(=O)[C@H](Cc1ccc(NC(=N)N)cc1)NC(=O)[C@H](Cc1ccc(F)cc1)NC(=O)/C=C/c1ccccc1)C(=O)N[C@@H](CCCNC(=N)N)C(=O)N[C@@H](CCCNC(=N)N)C(=O)O (X1-[Phe(4-F)][Phe(4-guanidino)]LRR-OH) |
